What was measured:
Johnsongrass [1] = assay: pre-emergence herbicidal activity, johnsongrass; format: in vivo, Sorghum halepense; details: preemergence, 1.0 kg/ha
From the text: (§1) The test plants included soybean (Glycine max var. Winchester), field corn (Zea mays var. Pioneer 3732), wheat (Triticum aestivum var. Lew), morning glory (Ipomea lacunosa or Ipomea hederacea), velvetleaf (Abutilon theophrasti), green foxtail (Setaria viridis), Johnsongrass (Sorghum halepense), blackgrass (Aloepecurus myosuroides), common chickweed (Stellaria media), and common cocklebur (Xanthium strumarium L.).
(§2) For pre-emergence testing, two disposable fiber flats (8 cm×15 cm×25 cm) for each rate of application of each candidate herbicide were filled to an approximate depth of 6.5 cm with steam-sterilized sandy loam soil. The soil was leveled and impressed with a template to provide five evenly spaced furrows 13 cm long and 0.5 cm deep in each flat. Seeds of soybean, wheat, corn, green foxtail, and johnsongrass were planted in the furrows of the first flat, and seeds of velvetleaf, morningglory, common chickweed, cocklebur, and blackgrass were planted in the furrows of the second flat. […]
(§3) The pre-emergence flats were initially subjected to a light water spray. […] After 12-17 days, the plants were examined, and the phytotoxicity data were recorded. […]
(§4) Phytotoxicity data are taken as percent control. Percent control is determined by a method similar to the 0 to 100 rating system disclosed in "Research Methods in Weed Science," 2nd ed., B. Truelove, Ed. […]

Blackgrass [2] = assay: pre-emergence herbicidal activity, blackgrass; format: in vivo, Aloepecurus myosuroides; details: preemergence, 1.0 kg/ha
From the text: as §1, §2, §3, §4

Morningglory = assay: pre-emergence herbicidal activity, morningglory; format: in vivo, Ipomea lacunosa or Ipomea hederacea; details: preemergence, 1.0 kg/ha
From the text: as §1, §2, §3, §4

Green foxtail [3] = assay: post-emergence herbicidal activity, green foxtail; format: in vivo, Setaria viridis; details: postemergence, 1.0 kg/ha
Corn [4] = assay: post-emergence herbicidal activity, corn; format: in vivo, Zea mays var. Pioneer 3732; details: postemergence, 1.0 kg/ha
Chickweed [5] = assay: post-emergence herbicidal activity, chickweed; format: in vivo, Stellaria media; details: postemergence, 1.0 kg/ha
Johnsongrass [6] = assay: post-emergence herbicidal activity, johnsongrass; format: in vivo, Sorghum halepense; details: postemergence, 1.0 kg/ha
Soybean [7] = assay: post-emergence herbicidal activity, soybean; format: in vivo, Glycine max var. Winchester; details: postemergence, 1.0 kg/ha
Green foxtail [8] = assay: pre-emergence herbicidal activity, green foxtail; format: in vivo, Setaria viridis; details: preemergence, 1.0 kg/ha
From the text: as §1, §2, §3, §4

Chickweed [9] = assay: pre-emergence herbicidal activity, chickweed; format: in vivo, Stellaria media; details: preemergence, 1.0 kg/ha
From the text: as §1, §2, §3, §4

Cocklebur [10] = assay: pre-emergence herbicidal activity, cocklebur; format: in vivo, Xanthium strumarium L.; details: preemergence, 1.0 kg/ha
From the text: as §1, §2, §3, §4

Wheat [11] = assay: pre-emergence herbicidal activity, wheat; format: in vivo, Triticum aestivum var. Lew; details: preemergence, 1.0 kg/ha
From the text: as §1, §2, §3, §4

Soybean [12] = assay: pre-emergence herbicidal activity, soybean; format: in vivo, Glycine max var. Winchester; details: preemergence, 1.0 kg/ha
From the text: as §1, §2, §3, §4

Wheat [13] = assay: post-emergence herbicidal activity, wheat; format: in vivo, Triticum aestivum var. Lew; details: postemergence, 1.0 kg/ha
Corn [14] = assay: pre-emergence herbicidal activity, corn; format: in vivo, Zea mays var. Pioneer 3732; details: preemergence, 1.0 kg/ha
From the text: as §1, §2, §3, §4

Cocklebur [15] = assay: post-emergence herbicidal activity, cocklebur; format: in vivo, Xanthium strumarium L.; details: postemergence, 1.0 kg/ha
Velvetleaf = assay: pre-emergence herbicidal activity, velvetleaf; format: in vivo, Abutilon theophrasti; details: preemergence, 1.0 kg/ha
From the text: as §1, §2, §3, §4

Blackgrass [16] = assay: post-emergence herbicidal activity, blackgrass; format: in vivo, Aloepecurus myosuroides; details: postemergence, 1.0 kg/ha

Structure (SMILES) | % CONTROL (Johnsongrass [1]) [%] | % CONTROL (Blackgrass [2]) [%] | % CONTROL (Morningglory) [%] | % CONTROL (Green foxtail [3]) [%] | % CONTROL (Corn [4]) [%] | % CONTROL (Chickweed [5]) [%] | % CONTROL (Johnsongrass [6]) [%] | % CONTROL (Soybean [7]) [%] | % CONTROL (Green foxtail [8]) [%] | % CONTROL (Chickweed [9]) [%] | % CONTROL (Cocklebur [10]) [%] | % CONTROL (Wheat [11]) [%] | % CONTROL (Soybean [12]) [%] | % CONTROL (Wheat [13]) [%] | % CONTROL (Corn [14]) [%] | % CONTROL (Cocklebur [15]) [%] | % CONTROL (Velvetleaf) [%] | % CONTROL (Blackgrass [16]) [%]
CCOC(=O)C(Cl)Cc1cc(-c2nn(C)c(OC(F)F)c2Cl)c(Cl)cc1Cl (stereo not drawn) [Compound 1] | 80 | 40 | 100 | 100 | 60 | 100 | 100 | 100 | 100 | 100 | 100 | 20 | 100 | 30 | 40 | 100 | 100 | 40
CCOC(=O)C(Cl)Cc1cc(-c2nn(C)c(OC(F)F)c2Cl)c(F)cc1Cl (stereo not drawn) [Compound 2, Ethyl 2-chloro-3-[2-chloro-4-fluoro-5-(4-chloro-5-difluoromethoxy-1-methylpyrazol-3-yl)phenyl]propanoate] | 70 | 50 | 100 | 100 | 90 | 100 | 90 | 100 | 100 | 100 | 100 | 30 | 90 | 55 | 10 | 100 | 100 | 60

— patent USH1942H, “Herbicidal 3-(pyrazolylphenyl)propanoic acids and derivatives” (FMC Corporation, priority 1998, dated 2001)
